Experimental findings from US20070082865A1, “Compositions and methods for treatment of airway hypersecretion” (Washington University, priority 2005, published 2007) are described below.

The test system of test [1] is EGFR signaling (Akt activation). Kind of test: Western blot of lung lysates from SeV-inoculated mice treated with EKB-569. The test is classed as in vivo, C57BL/6J mice. How it is done: Blotting was with the indicated antibodies. Methodology is further described in Examples 1 and 2.
(§1) C57BL/6J and Balb/cJ mice were obtained from The Jackson Laboratory (Bar Harbor, Me.) and were maintained and monitored under pathogen-free conditions for study at 7 wk of age as described previously (Walter et al. (2001); Walter et al. (2002); Tyner et al. (2006) J. Clin. Invest. 116:309-321). SeV (Fushimi Strain 52) was grown in embryonated hen eggs and harvested to provide a viral stock solution such that 5000 EID50 (50% egg infectious dose) was equivalent to 2×10^5 PFU (plaque-forming units). This inoculum or an equivalent amount of UV-inactivated SeV was delivered intranasally in 30 μl PBS under ketamine/xylazine anesthesia. Under these conditions, viral tissue levels are maximal at days 3-5 after infection and viral clearance is complete by day 12 (Walter et al. (2001); Walter et al. (2002); Tyner et al. (2006) J. Clin. Invest. 116:309-321). […] For IL-13 blockade, mice were given subcutaneous injections of soluble murine IL-13Rα2 fused to Fc (slL Example 2: EGFR inhibition decreases aspects of epithelial remodeling 13Rα2-Fc; obtained from Deborah Donaldson, Wyeth Ayerst; 200 μg/mouse in PBS) or control Fc on days 12, 14, 17, and 20 post-infection (Donaldson (1998) J. Immunol. 161, 2317).

For test [2], the system named is airway epithelium (ciliated, Clara and goblet cells). As to the kind of experiment: Quantitative morphometry of airway epithelial cell types (β-tubulin, CCSP, MUC5AC immunostaining) after SeV inoculation. The test is classed as in vivo, C57BL/6J mice.
From the text: Values represent mean+SEM, and a significant difference from SeV-UV control is indicated by (*). Methodology is further described in Example 2.
FIG. 24 is a bar graph showing quantitative analysis of β-tubulin (ciliated cells), CCSP (Clara cells), and MUC5AC (goblet cells) immunostaining in airways of mice infected with SeV and treated with slL-13 receptor antagonist (slL-13Ra2-Fc) or control IgG from on days 12, 14, 17, and 20 after inoculation. Bars=20 μm. A significant difference from corresponding IgG treatment is indicated by (*). Methodology is further described in Example 4.
as §1
Mouse lung was fixed by intraracheal instillation of 4% paraformaldehyde at 25-cm H2O pressure. After overnight fixation at 4° C., tissue was embedded in paraffin, and cut into 3-μm thick sections for hematoxylin/eosin or immunostaining.
For immunostaining, tissue sections were deparaffinized, rehydrated in graded alcohol and encircled with a hydrophobic film (ImmEdge PEN, Vector laboratories, Burlingame, Calif.). […] EGFR was detected using rabbit-antihuman EGFR antibody SC-03 from Santa Cruz Biotechnology (Santa Cruz, Calif.) directed against amino acid residues 1005-1016 that are identical to corresponding sequence in murine EGFR. Phosphorylated EGFR (p-EGFR) was detected using rabbit anti-phospho-EGFR (Tyr845) antibody #2231 from Cell Signaling Technology Inc. (Beverly, Mass.) directed against phosphorylated Tyr^845. […]

For test [3], the system named is EGFR-dependent signals (p-EGFR, p-Akt, p-ERK1/2). As to the kind of experiment: Western blot of EGF-stimulated mTEC cultures with or without inhibitor. The test is classed as cell-based, mouse. The following applies: basic medium then EGF stimulation, inhibitor at maximal effective concentration. For orientation: A western blot detects proteins with antibodies after separation by electrophoresis.

Test [4] relates to ciliated epithelial cells in mouse tracheal epithelial cell (mTEC) cultures. Kind of test: Ciliated cell survival in mTEC cultures (β-tubulin staining cells as % of total Hoechst-staining cells). The note with it: treatment for 7 days. The test is classed as cell-based.
Test [5] concerns mouse tracheal epithelial cell (mTEC) cultures. As to the kind of experiment: Apoptosis in mTEC cultures (active caspase 3, TUNEL). The following applies: mTEC with EGFR signaling blockade plus z-VAD-fmk (100 μM). The test is classed as cell-based. How it is done:
Bar=20 μm. Methodology is further described in Example 3.
FIGS. 13A and 13B are bar graphs showing quantitative analysis of FIG. 12 for activate caspase-3 staining cells (expressed as % of total Hoechst staining cells) using treatment conditions from FIG. 12 as well as PD15305 plus zVAD-fmk (100 μM). Values represent mean+SEM, and a significant difference from vehicle alone is indicated by (*). Methodology is further described in Example 3.
AIRWAY EPITHELIAL CELL CULTURE AND TREATMENT.
IMMUNOCYTOCHEMISTRY. Cultured cells were washed twice with PBS at 4° C., fixed in 4% paraformaldehyde for 10 min. at 25° C., washed with PBS, and permeabilized with ethanol:acetic acid (2:1, vol/vol) for 5 min at −20° C. for TUNEL reaction or with 0.2% Triton-X for 5 min at 25° C. for immunostaining. Permeabilized cells were then washed with PBS and subjected to the TUNEL reaction (Intergen, Purchase, N.Y.) or blocked with 2% fish gel 1 h at 25° C. and incubated with rabbit anti-active caspase 3 (BD Biosciences, San Diego, Calif.), rabbit anti-EGFR (Santa Cruz Biotechnology, Santa Cruz, Calif.), rabbit anti-p-EGFR (Cell Signaling Technology, Inc., Beverly, Mass.), mouse anti-β-tubulin-IV or rabbit anti-β-tubulin (Sigma, St. Louis, Mo.) antibodies overnight at 4° C. Primary antibody binding was detected with goat anti-mouse or donkey anti-rabbit FITC or CY3 secondary antibody. […]

Setting [6] is: SeV, EGFR inhibitor daily post-infection days 10-21, read at day 21.

As for `CCOc1cc2ncc(C#N)c(Nc3ccc(F)c(Cl)c3)c2cc1NC(=O)/C=C/CN(C)C` [EKB-569], the “Akt activation in whole mouse lung” value in test [1] (20 mg/kg by gavage daily, post-infection days 10-21, day 21 post-infection) is on record as “full inhibition”. Further, the “EGFR signaling in vivo” value in test [1] (oral, each day from post-inoculation day 10 through day 21) was “blocked EGFR signaling”. Besides, in test [2] (setting [6]), the Clara cell decreases result was “complete blockade”, the ciliated cell increases result is listed as “complete blockade” and the goblet cell metaplasia entry was “partial but significant inhibition”. Besides, the “total number of airway epithelial cells (cytokeratin-staining cells)” value in test [2] (post-inoculation day 21, vehicle 133±3) worked out at 137±5 per mm basement membrane.

Consider `COc1cccc(-c2cc(=O)c3ccccc3o2)c1N` [PD98059], for which the “phosphorylation of ERK1/2” value in test [3] was “blocked”. For the same molecule, the “loss of ciliated epithelial cells” value in test [4] was “only treatment with LY294002 caused a similar loss”.

Take `COc1cc2ncnc(Nc3cccc(Br)c3)c2cc1OC` [PD153035]: the “downstream EGFR signals” value in test [3] is “blocked all downstream signals”. The “loss of ciliated epithelial cells” value in test [4] was “dose-dependent loss of ciliated cells”.

In the case of “z-Val-Ala-Asp fluoromethylketone [z-VAD-fmk]”, in test [5], the “TUNEL-positive cells undergoing apoptosis” value is “blocked”.
